What was measured:
hPol θ PD = target: T1, hPol θ PD (Homo sapiens, UniProt O75417); assay: primer extension, denaturing gel; type: biochemical
T1 construct: gene POLQ; pSUMO3 (POLQM1) vector, 6xHis-SUMO tag cut off; E. coli; ~90 kDa
T1 sequence (O75417 1791-2590): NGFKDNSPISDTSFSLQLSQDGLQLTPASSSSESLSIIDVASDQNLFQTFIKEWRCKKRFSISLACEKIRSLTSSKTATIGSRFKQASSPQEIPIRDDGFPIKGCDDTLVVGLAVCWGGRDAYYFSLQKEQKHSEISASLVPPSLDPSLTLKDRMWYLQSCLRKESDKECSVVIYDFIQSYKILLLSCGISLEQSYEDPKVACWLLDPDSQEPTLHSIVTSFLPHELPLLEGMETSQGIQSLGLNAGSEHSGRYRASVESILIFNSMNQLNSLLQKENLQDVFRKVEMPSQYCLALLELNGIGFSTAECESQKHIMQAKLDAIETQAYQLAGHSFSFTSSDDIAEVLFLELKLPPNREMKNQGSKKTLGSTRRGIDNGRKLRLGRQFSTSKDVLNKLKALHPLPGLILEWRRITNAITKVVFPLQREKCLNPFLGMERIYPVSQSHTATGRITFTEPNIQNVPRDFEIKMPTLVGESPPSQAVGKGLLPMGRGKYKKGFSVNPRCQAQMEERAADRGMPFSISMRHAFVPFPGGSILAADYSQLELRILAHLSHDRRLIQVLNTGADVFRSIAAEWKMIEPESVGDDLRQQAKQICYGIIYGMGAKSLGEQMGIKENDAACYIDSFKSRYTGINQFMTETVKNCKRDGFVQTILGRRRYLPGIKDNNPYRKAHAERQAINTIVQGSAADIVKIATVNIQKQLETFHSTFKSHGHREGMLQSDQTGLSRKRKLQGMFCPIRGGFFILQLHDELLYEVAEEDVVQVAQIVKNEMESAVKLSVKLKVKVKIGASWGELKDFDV

[1] = target: T2, zPol theta PD (DNA polymerase theta polymerase domain) (zebrafish, UniProt F1Q4P4 1832-2576); assay: EMSA; 10 nM DNA, 0-1000 nM protein; binding buffer (composition not given in the material), 1 h at room temperature, 6% native PAGE; conditions: protein: recombinant; tags: 6xHis-SUMO, cleaved off (untagged); label: 5'-6-FAM on strand 1 (25-mer primer); primer-template, 22 bp; 5' overhang 18 nt on template, 3 nt unpaired 5' TTT on primer
T2 sequence: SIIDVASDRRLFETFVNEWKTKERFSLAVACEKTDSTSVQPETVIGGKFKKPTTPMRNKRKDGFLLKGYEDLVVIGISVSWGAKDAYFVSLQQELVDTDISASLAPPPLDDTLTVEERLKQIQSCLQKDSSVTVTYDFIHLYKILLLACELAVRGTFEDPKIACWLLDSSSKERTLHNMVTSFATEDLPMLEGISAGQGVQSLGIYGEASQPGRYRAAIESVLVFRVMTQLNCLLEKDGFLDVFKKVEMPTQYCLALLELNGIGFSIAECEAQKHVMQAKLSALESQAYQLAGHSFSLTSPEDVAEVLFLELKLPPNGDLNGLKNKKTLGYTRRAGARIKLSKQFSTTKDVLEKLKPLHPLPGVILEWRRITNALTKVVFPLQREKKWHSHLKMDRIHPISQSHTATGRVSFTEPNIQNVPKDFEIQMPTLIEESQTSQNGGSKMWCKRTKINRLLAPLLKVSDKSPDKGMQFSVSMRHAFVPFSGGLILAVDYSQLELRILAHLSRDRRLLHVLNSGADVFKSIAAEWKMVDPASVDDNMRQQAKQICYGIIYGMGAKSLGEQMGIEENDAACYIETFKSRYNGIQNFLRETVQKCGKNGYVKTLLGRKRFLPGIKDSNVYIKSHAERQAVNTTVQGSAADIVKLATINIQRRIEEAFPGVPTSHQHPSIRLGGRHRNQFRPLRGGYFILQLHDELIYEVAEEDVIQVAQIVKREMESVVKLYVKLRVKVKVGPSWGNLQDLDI

## Nc1ccn([C@H]2C[C@H](O)[C@@H](COP(=O)(O)OP(=O)(O)OP(=O)(O)O)O2)c(=O)n1 [dCTP]
hPol θ PD; 25/40 dsDNA, templating G, MgCl2 or MnCl2, pH 8.0, 37 °C, steady state
  primer extension, denaturing gel: Both enzymes were able to incorporate single nucleotides, correct and incorrect as well

## Nc1ncnc2c1ncn2[C@H]1C[C@H](O)[C@@H](COP(=O)(O)OP(=O)(O)OP(=O)(O)O)O1 [dATP]
hPol θ PD; CPD (T-T dimer) 24/33 DNA, 10 mM MgCl2 or MnCl2, pH 8.0, 37 °C, single turnover
  primer extension, denaturing gel: Both enzymes were able to readily insert opposite a T-T dimer

B1: 25/40 dsDNA undamaged (dsDNA)
DNA 1: TTTGCCTTGACCATGTAACAGAGAG
DNA 2: TCTCTTCTCTCACTCACGCTCTCTGTTACATGGTCAAGGC
[1]
  Kd: 19.8 ± 3.1 nM

Source: paper PMC12040184, “Zebrafish Polymerase Theta and human Polymerase Theta: Orthologues with homologous function” (PLOS One, 2025)
